This assay concerns the target hcGAS (Homo sapiens, UniProt Q8N884). Briefly: hcGAS LCMS assay (direct measurement of cGAMP production by LC/MS). Format: biochemical. The protocol:
cGAS catalyzes the cyclization of ATP and GTP to produce cGAMP, which is the activating ligand of STING. Human cGAS (hcGAS) inhibition can thus be quantified by measuring how much cGAMP is formed either indirectly, by monitoring ATP-depletion as in the hcGAS Kinase-Glo assay (as described below), or directly, such as using the hcGAS LCMS assay (as described below).
2. hGAS LCMS Assay Conditions
Compounds were tested for their hcGAS inhibition activity using direct measurement of cGAMP production by LC/MS. Briefly, compounds were incubated with enzyme and substrates for 4 hours (see Table C), before the reaction was stopped with 3 volumes of 70/30 Acetonitrile/H2O mix containing 0.15 uM cGAMP-^13C10^15N5 as internal standard and mixed for 5 mmn. After centrifugation (3700 rpm, […], […]), 100 uL of each reaction was collected and mixed to equal volume of acetonitrile (MeCN). Samples were then analyzed on Qexactive (Column: XBridge BEH Amide Column, 130 Å, 3.5 μm, 3 mm×50 mm. Mobile phase A: 10 mM Ammonium acetate in 95/5 H2O/MeCN (0.5% DMSO), Mobile phase B: MeCN (0.5% DMSO).
The results of the assay, expressed as IC50 values, are reported in Table D with the following designations: A represents an IC50 value <0.005 μM (with A1 representing an IC50 value <0.0005 μM, A2 representing an IC50 value ≥0.0005 μM and <0.001 μM, and A3 representing an IC50 value ≥0.001 μM and <0.005 μM); B represents an IC50 value ≥0.005 μM and <0.02 μM; C represents an IC50 value ≥0.02 μM and <0.06 μM; and D represents an IC50 value ≥0.06 μM.

[1] abbreviates: 4 h incubation with enzyme and substrates, cGAMP production by LC/MS, class symbols, read-out: hcGAS LCMS IC50.
Where [2] appears, read: hcGAS 0.5 nM, ATP 100 μM, GTP 100 μM, dsDNA 25 nM, pH 7.4, 4 h incubation, read-out: hcGAS inhibition IC50 (activity class, Table D).

Like-named read-outs stand apart in the source and are kept apart here.

hcGAS, sequence (Q8N884 whole entry): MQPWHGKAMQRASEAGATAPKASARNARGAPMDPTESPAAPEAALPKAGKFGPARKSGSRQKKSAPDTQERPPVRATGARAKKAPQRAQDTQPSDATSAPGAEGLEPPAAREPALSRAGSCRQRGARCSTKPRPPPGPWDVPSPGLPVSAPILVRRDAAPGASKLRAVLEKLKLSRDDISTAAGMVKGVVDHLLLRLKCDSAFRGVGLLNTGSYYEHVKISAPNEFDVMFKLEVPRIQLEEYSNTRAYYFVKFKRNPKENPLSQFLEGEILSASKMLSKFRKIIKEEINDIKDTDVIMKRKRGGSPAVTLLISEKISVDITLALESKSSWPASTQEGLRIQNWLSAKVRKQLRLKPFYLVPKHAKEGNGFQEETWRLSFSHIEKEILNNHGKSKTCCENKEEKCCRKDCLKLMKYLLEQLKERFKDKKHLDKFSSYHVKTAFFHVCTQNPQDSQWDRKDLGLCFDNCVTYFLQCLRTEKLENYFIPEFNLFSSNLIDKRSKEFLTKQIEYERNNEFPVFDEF

Turning to `COCCOc1c(-c2c(C)cccc2C#N)cc(C(=O)Nc2nnc(-n3nccc3N)s2)oc1=O` (single isomer, unassigned) [Compound 24A*, (Ra)—N-(5-(5-amino-1H-pyrazol-1-yl)-1,3,4-thiadiazol-2-yl)-4-(2-cyano-6-methylphenyl)-3-(2-methoxyethoxy)-2-oxo-2H-pyran-6-carboxamide], the IC50 (in general, the midpoint of a concentration-inhibition curve) by setting is: under setting [1], less than 0.5 nM; under setting [2], less than 0.5 nM.

In the case of `COc1cccc(OC)c1-c1cc(C(=O)Nc2nnc(-n3nccc3N)s2)oc(=O)c1OCCN1CCOCC1` [Compound 22, N-(5-(5-amino-1H-pyrazol-1-yl)-1,3,4-thiadiazol-2-yl)-4-(2,6-dimethoxyphenyl)-3-(2-morpholinoethoxy)-2-oxo-2H-pyran-6-carboxamide], the IC50 under setting [1] lay within 1 to 5 nM.

In the case of `COc1cccc(OC)c1-c1cc(C(=O)Nc2nnc(-n3nccc3N)s2)oc(=O)c1OCCOC1CC(O)C1` (stereo not shown) [102A*, N-(5-(5-amino-1H-pyrazol-1-yl)-1,3,4-thiadiazol-2-yl)-4-(2,6-dimethoxyphenyl)-3-(2-((1s,3s)-3-hydroxycyclobutoxy)ethoxy)-2-oxo-2H-pyran-6-carboxamide], the IC50 under setting [1] was in the range of 0.5 to 1 nM.

Consider `COc1cccc(OC)c1-c1cc(C(=O)Nc2nnc(-n3nccc3N)s2)oc(=O)c1OCC(O)CN1CCSCC1` (stereo not shown) [91A*/91B*], for which, under setting [1], the IC50 lay in the range of 0.5 to 1 nM.

For the compound `COCC(C)(C)COc1c(-c2ncccc2OC)cc(C(=O)Nc2nnc(-n3nccc3N)s2)oc1=O` [Compound 29, N-(5-(5-amino-1H-pyrazol-1-yl)-1,3,4-thiadiazol-2-yl)-3-(3-methoxy-2,2-dimethylpropoxy)-4-(3-methoxypyridin-2-yl)-2-oxo-2H-pyran-6-carboxamide], the IC50 under setting [1] fell in the range of 1 to 5 nM.

Turning to `COc1cccc(OC)c1-c1cc(C(=O)Nc2nnc(-n3nccc3N)s2)oc(=O)c1OCCN1C[C@H]2C[C@@H]1CS2` [93B*, 3-(2-((1R,4R)-2-thia-5-azabicyclo[2.2.1]heptan-5-yl)ethoxy)-N-(5-(5-amino-1H-pyrazol-1-yl)-1,3,4-thiadiazol-2-yl)-4-(2,6-dimethoxyphenyl)-2-oxo-2H-pyran-6-carboxamide], the IC50 under setting [1] lay in the range of 0.5 to 1 nM.

For the compound `COc1cccc(OC)c1-c1cc(C(=O)Nc2nnc(-n3nccc3N)s2)oc(=O)c1OCC(CO)N1CCOCC1` (racemic) [Rac-85, N-(5-(5-amino-1H-pyrazol-1-yl)-1,3,4-thiadiazol-2-yl)-4-(2,6-dimethoxyphenyl)-3-(3-hydroxy-2-morpholinopropoxy)-2-oxo-2H-pyran-6-carboxamide], the IC50 under setting [1] is 1 to 5 nM.

Consider `COc1cccc(OC)c1-c1cc(C(=O)Nc2nnc(-n3nccc3N)s2)oc(=O)c1OCCN1CCCCC1` [Compound 69, N-(5-(5-amino-1H-pyrazol-1-yl)-1,3,4-thiadiazol-2-yl)-4-(2,6-dimethoxyphenyl)-2-oxo-3-(2-(piperidin-1-yl)ethoxy)-2H-pyran-6-carboxamide], for which, under setting [1], the IC50 lay within 5 to 20 nM.

On to `COc1cccc(OC)c1-c1cc(C(=O)Nc2nnc(-n3nccc3N)s2)oc(=O)c1OCCN1CCO[C@H](CSC)C1` [82A*, (S)-N-(5-(5-amino-1H-pyrazol-1-yl)-1,3,4-thiadiazol-2-yl)-4-(2,6-dimethoxyphenyl)-3-(2-(2-((methylthio)methyl)morpholino)ethoxy)-2-oxo-2H-pyran-6-carboxamide], for which the IC50 under setting [1] was 1 to 5 nM.

Regarding `COc1cccc(OC)c1-c1cc(C(=O)Nc2nnc(-n3nccc3N)s2)oc(=O)c1OC(CO)CN1CCOCC1` (racemic) [Rac-87, N-(5-(5-amino-1H-pyrazol-1-yl)-1,3,4-thiadiazol-2-yl)-4-(2,6-dimethoxyphenyl)-3-((1-hydroxy-3-morpholinopropan-2-yl)oxy)-2-oxo-2H-pyran-6-carboxamide], under setting [1], the IC50 was 1 to 5 nM.

As for `COc1cccc(OC)c1-c1cc(C(=O)Nc2nnc(-n3nccc3N)s2)oc(=O)c1OCCN1CCSCC1=O` [Compound 75, N-(5-(5-amino-1H-pyrazol-1-yl)-1,3,4-thiadiazol-2-yl)-4-(2,6-dimethoxyphenyl)-2-oxo-3-(2-(3-oxothiomorpholino)ethoxy)-2H-pyran-6-carboxamide], under setting [1], the IC50 lay in the range of 0.5 to 1 nM.

For the compound `COCCOc1c(-c2ncccc2OC)cc(C(=O)Nc2nnc(-c3c(F)ccn3C)s2)oc1=O` [Compound 18, N-(5-(3-fluoro-1-methyl-1H-pyrrol-2-yl)-1,3,4-thiadiazol-2-yl)-3-(2-methoxyethoxy)-4-(3-methoxypyridin-2-yl)-2-oxo-2H-pyran-6-carboxamide], the IC50 under setting [1] lay in the range of 1 to 5 nM.

As for `COc1c(-c2nn(C)cc2C#N)cc(C(=O)Nc2nnc(-n3nccc3C)s2)oc1=O` [Compound 31, 4-(4-cyano-1-methyl-1H-pyrazol-3-yl)-3-methoxy-N-(5-(5-methyl-1H-pyrazol-1-yl)-1,3,4-thiadiazol-2-yl)-2-oxo-2H-pyran-6-carboxamide], the IC50 under setting [1] lay in the range of 5 to 20 nM.

With `COc1cccnc1-c1cc(C(=O)Nc2nnc(-n3nccc3N)s2)oc(=O)c1O[C@H]1CCC[C@H](OC)C1` (single isomer, unassigned) [113B*], the IC50 under setting [1] is 0.5 to 1 nM.

On to `COC[C@@H](C)Oc1c(-c2c(OC)cccc2OC)cc(C(=O)Nc2nnc(-n3nccc3N)s2)oc1=O` [Compound 47B, (R)—N-(5-(5-amino-1H-pyrazol-1-yl)-1,3,4-thiadiazol-2-yl)-4-(2,6-dimethoxyphenyl)-3-((1-methoxypropan-2-yl)oxy)-2-oxo-2H-pyran-6-carboxamide], for which the half-inhibitory concentration (IC50) under setting [1] is less than 0.5 nM.

Regarding `COc1cccc(OC)c1-c1cc(C(=O)Nc2nnc(-n3nccc3N)s2)oc(=O)c1OC[C@H](C)O` [Compound 46B, (S)—N-(5-(5-amino-1H-pyrazol-1-yl)-1,3,4-thiadiazol-2-yl)-4-(2,6-dimethoxyphenyl)-3-(2-hydroxypropoxy)-2-oxo-2H-pyran-6-carboxamide], under setting [1], the IC50 was less than 0.5 nM.

For `COCCOc1c(-c2ncc(OC)cc2OC)cc(C(=O)Nc2nnc(-n3nccc3N)s2)oc1=O` [Compound 60, N-(5-(5-amino-1H-pyrazol-1-yl)-1,3,4-thiadiazol-2-yl)-4-(3,5-dimethoxypyridin-2-yl)-3-(2-methoxyethoxy)-2-oxo-2H-pyran-6-carboxamide], under setting [1], the IC50 was in the range of 1 to 5 nM.

With `COc1cccc(OC)c1-c1cc(C(=O)Nc2nnc(-n3nccc3N)s2)oc(=O)c1OCCN1CCSC(CO)C1` (stereo not shown) [100A*/100B*], under setting [1], the IC50 fell in the range of 1 to 5 nM.

For `COc1cccc(OC)c1-c1cc(C(=O)Nc2nnc(-n3nccc3N)s2)oc(=O)c1OC[C@H](C)OC` [Compound 53, (S)-N-(5-(5-amino-1H-pyrazol-1-yl)-1,3,4-thiadiazol-2-yl)-4-(2,6-dimethoxyphenyl)-3-(2-methoxypropoxy)-2-oxo-2H-pyran-6-carboxamide], under setting [1], the IC50 is less than 0.5 nM.

`COCCOc1cccc(OC)c1-c1cc(C(=O)Nc2nnc(-n3nccc3N)s2)oc(=O)c1OCCOC` [Compound 27, N-(5-(5-amino-1H-pyrazol-1-yl)-1,3,4-thiadiazol-2-yl)-4-(2-methoxy-6-(2-methoxyethoxy)phenyl)-3-(2-methoxyethoxy)-2-oxo-2H-pyran-6-carboxamide]: the IC50 under setting [1] lay in the range of 1 to 5 nM.

`COC[C@@H](O)COc1c(-c2c(OC)cccc2OC)cc(C(=O)Nc2nnc(-n3nccc3N)s2)oc1=O` (single isomer, unassigned) [Compound 63B*]: the half-maximal inhibitory concentration (IC50) under setting [1] lay in the range of 0.5 to 1 nM.

Turning to `COc1cccc(OC)c1-c1cc(C(=O)Nc2nnc(-n3nccc3N)s2)oc(=O)c1O[C@@H](CO)C1CC1` [106B*, (R)-N-(5-(5-amino-1H-pyrazol-1-yl)-1,3,4-thiadiazol-2-yl)-3-(1-cyclopropyl-2-hydroxyethoxy)-4-(2,6-dimethoxyphenyl)-2-oxo-2H-pyran-6-carboxamide], the IC50 under setting [1] was 1 to 5 nM.

In the case of `COc1cccc(OC)c1-c1cc(C(=O)Nc2nnc(-n3nccc3N)s2)oc(=O)c1OCCN1CCSCC1` [Compound 44, N-(5-(5-amino-1H-pyrazol-1-yl)-1,3,4-thiadiazol-2-yl)-4-(2,6-dimethoxyphenyl)-2-oxo-3-(2-thiomorpholinoethoxy)-2H-pyran-6-carboxamide], the IC50 reads like this: under setting [1], less than 0.5 nM; under setting [2], less than 0.5 nM. In addition, under “compared with Compound 1, from activity classes of Table D”, the “cGAS potency relative to Compound 1” value is listed as “improved cGAS potency”.

As for `COc1cccc(OC)c1-c1cc(C(=O)Nc2nnc(-n3nccc3N)s2)oc(=O)c1O[C@H]1CC[C@@H](O)CC1` [Compound 108B, N-(5-(5-amino-1H-pyrazol-1-yl)-1,3,4-thiadiazol-2-yl)-4-(2,6-dimethoxyphenyl)-3-(((1s,4s)-4-hydroxycyclohexyl)oxy)-2-oxo-2H-pyran-6-carboxamide], the IC50 under setting [1] fell in the range of 1 to 5 nM.

As for `COc1cccc(OC)c1-c1cc(C(=O)Nc2nnc(-n3nccc3N)s2)oc(=O)c1O[C@H](CO)C1CC1` [106A*, (S)-N-(5-(5-amino-1H-pyrazol-1yl)-1,3,4-thiadiazol-2-yl)-3-(1-cyclopropyl-2-hydroxyethoxy)-4-(2,6-dimethoxyphenyl)-2-oxo-2H-pyran-6-carboxamide], the IC50 under setting [1] lay in the range of 1 to 5 nM.

(Values after patent US20260327221A1, “INHIBITORS OF CYCLIC GMP-AMP SYNTHASE AND USES THEREOF” (Ventus Therapeutics U.S., Inc., priority 2023, published 2026).)
